# Read-outs that look alike come from different tables or passages of the source.
# Columns and labels:
# [1] = Solubility of salts in water (HPLC); format: physicochemical
# Description: The formulator can determine the solubility of the pharmaceutically acceptable salts of the disclosed inhibitors by any method desirable. The following is a non-limiting example of a procedure for evaluating the solubility of a salt of a disclosed inhibitor. A suspension of tert-butyl-{[1-(4-chlorobenzyl)-3-hydroxy-2-oxo-1,2-dihydropyridin-4-yl]methyl}-piperazine-1-carboxylate methanesulfonate (26.6 mg) in distilled deionized water (3.0 mL) is sonicated for 20 min with water bath temperature under 25° C. The suspension is filtered to remove any insoluble salt. The clear filtrate solution (200 μL) is diluted with distilled deionized water (800 μL) and subjected to HPLC analysis. The following are results for the pharmaceutically acceptable salts outlined in Table VII above.
# [2] = system: phosphoglycerate kinase (PGK) expression; experiment: PGK expression in murine embryonic fibroblasts; format: cell-based; settings: wild type murine embryonic fibroblasts; 1 μM, 10 μM (FIG. 12)
# Description: FIG. 11 depicts the up regulation of phosphoglycerate kinase (PGK) expression in wild type murine embryonic fibroblasts as a result of treatment with compound a compound disclosed in Table VIII at dosages of 1 μM (E), 10 μM (F), and 50 μM (G) vs. wild type control (H) and the lack of up regulation of PGK expression in HIF-1 knock out cells as a result of treatment with a compound disclosed in Table VIII at dosages of 1 μM (A), 10 μM (B), and 50 μM (C) and HIF-1 knock out control (D). Both cell types were treated for 7 hours.
smiles,measurement,setting,value
"CC(C)(C)OC(=O)N1CCN(Cc2ccn(Cc3ccc(Cl)cc3)c(=O)c2O)CC1 [hydrogensulfonate, tert-butyl-{[1-(4-chlorobenzyl)-3-hydroxy-2-oxo-1,2-dihydropyridin-4-yl]methyl}-piperazine-1-carboxylate]",Solubility,[1],13200 µg/mL
"O=c1c(O)cccn1Cc1cccc(Cl)c1 [Compound F2, 1-(3-chlorobenzyl)-3-hydroxypyridin-2(1H)-one]",up regulation of phosphoglycerate kinase (PGK) expression,[2],up regulation
"CC(C)(C)OC(=O)N1CCN(Cc2ccn(Cc3ccc(Cl)cc3)c(=O)c2O)CC1 [Compound A41, tert-butyl 4-{[1-(4-chlorobenzyl)-3-hydroxy-2-oxo-1,2-dihydropyridin-4-yl]methyl}piperazine-1-carboxylate]",Solubility,"[1]; distilled deionized water, sonicated 20 min, under 25° C., HPLC, listed as Free base",~1 µg/mL
